In the NIST ThermoML archive (doi:10.1021/acs.jced.7b00458):
Numbers after ± are expanded uncertainties.

Details: 100 kPa, Liquid; for electrical conductivity: Alternating current cell with electrodes; for viscosity: Concentric cylinders viscometry; for mass density: Vibrating tube method

SMILES | electrical conductivity (298.15 K) | viscosity (298.15 K) | mass density (298.15 K) | electrical conductivity (300.15 K) | viscosity (300.15 K) | mass density (300.15 K) | electrical conductivity (306.15 K) | viscosity (306.15 K) | mass density (306.15 K) | electrical conductivity (312.15 K) | viscosity (312.15 K) | mass density (312.15 K) | electrical conductivity (318.15 K) | viscosity (318.15 K) | mass density (318.15 K) | electrical conductivity (324.15 K) | viscosity (324.15 K) | mass density (324.15 K) | electrical conductivity (330.15 K) | viscosity (330.15 K) | also measured
CCCCC[P+](CC)(CC)CC.O=S(=O)([N-]S(=O)(=O)C(F)(F)F)C(F)(F)F | 0.21 ± 0.025 S/m | 85.3 ± 0.79 mPa·s | 1304 ± 1 kg/m3 | 0.223 ± 0.027 S/m | 77.43 ± 0.65 mPa·s | 1302 ± 1 kg/m3 | 0.286 ± 0.034 S/m | 58.68 ± 0.4 mPa·s | 1297 ± 1 kg/m3 | 0.358 ± 0.043 S/m | 45.42 ± 0.32 mPa·s | 1292 ± 1 kg/m3 | 0.435 ± 0.052 S/m | 35.82 ± 0.25 mPa·s | 1287 ± 1 kg/m3 | 0.521 ± 0.063 S/m | 28.79 ± 0.2 mPa·s | 1282 ± 1 kg/m3 | 0.612 ± 0.073 S/m | 23.5 ± 0.17 mPa·s | mass density (330.15 K): 1277 ± 1 kg/m3; electrical conductivity (336.15 K): 0.711 ± 0.085 S/m; viscosity (336.15 K): 19.46 ± 0.14 mPa·s; mass density (336.15 K): 1272 ± 1 kg/m3; viscosity (341.15 K): 16.79 ± 0.12 mPa·s; mass density (341.15 K): 1268 ± 1 kg/m3; electrical conductivity (348.15 K): 0.917 ± 0.11 S/m; viscosity (348.15 K): 13.86 ± 0.1 mPa·s; mass density (348.15 K): 1262 ± 1 kg/m3; viscosity (355.15 K): 11.58 ± 0.08 mPa·s; mass density (355.15 K): 1256 ± 1 kg/m3; electrical conductivity (361.15 K): 1.17 ± 0.14 S/m; viscosity (361.15 K): 10.02 ± 0.07 mPa·s; mass density (361.15 K): 1251 ± 1 kg/m3; viscosity (373.15 K): 7.531 ± 0.054 mPa·s; mass density (373.15 K): 1241 ± 1 kg/m3
CCCC[N+]1(C)CCCCC1.O=S(=O)([N-]S(=O)(=O)C(F)(F)F)C(F)(F)F | 0.139 ± 0.017 S/m | 188.9 ± 3.5 mPa·s | 1382 ± 1 kg/m3 | 0.153 ± 0.018 S/m | 168 ± 2.9 mPa·s | 1380 ± 1 kg/m3 | 0.202 ± 0.024 S/m | 120.2 ± 1.6 mPa·s | 1375 ± 1 kg/m3 | 0.264 ± 0.032 S/m | 88.67 ± 0.85 mPa·s | 1370 ± 1 kg/m3 | 0.337 ± 0.04 S/m | 67.13 ± 0.5 mPa·s | 1365 ± 1 kg/m3 | 0.424 ± 0.051 S/m | 52.01 ± 0.34 mPa·s | 1360 ± 1 kg/m3 | 0.519 ± 0.062 S/m | 41.12 ± 0.29 mPa·s | mass density (330.15 K): 1355 ± 1 kg/m3; electrical conductivity (336.15 K): 0.626 ± 0.075 S/m; viscosity (336.15 K): 33.12 ± 0.23 mPa·s; mass density (336.15 K): 1349 ± 1 kg/m3; viscosity (341.15 K): 27.98 ± 0.2 mPa·s; mass density (341.15 K): 1345 ± 1 kg/m3; electrical conductivity (348.15 K): 0.876 ± 0.1 S/m; viscosity (348.15 K): 22.51 ± 0.16 mPa·s; mass density (348.15 K): 1339 ± 1 kg/m3; viscosity (355.15 K): 18.36 ± 0.13 mPa·s; mass density (355.15 K): 1333 ± 1 kg/m3; electrical conductivity (361.15 K): 1.19 ± 0.14 S/m; viscosity (361.15 K): 15.62 ± 0.11 mPa·s; mass density (361.15 K): 1329 ± 1 kg/m3; viscosity (373.15 K): 11.62 ± 0.08 mPa·s; mass density (373.15 K): 1319 ± 1 kg/m3
CCCC[N+]1(C)CCCC1.O=S(=O)([N-]S(=O)(=O)C(F)(F)F)C(F)(F)F | 0.393 ± 0.039 S/m | 77.76 ± 0.66 mPa·s | 1395 ± 1 kg/m3 | 0.423 ± 0.042 S/m | 71.11 ± 0.56 mPa·s | 1393 ± 1 kg/m3 | 0.52 ± 0.052 S/m | 54.97 ± 0.36 mPa·s | 1388 ± 1 kg/m3 | 0.638 ± 0.064 S/m | 43.41 ± 0.31 mPa·s | 1382 ± 1 kg/m3 | 0.772 ± 0.077 S/m | 34.92 ± 0.25 mPa·s | 1377 ± 1 kg/m3 | 0.924 ± 0.092 S/m | 28.56 ± 0.2 mPa·s | 1372 ± 1 kg/m3 | 1.08 ± 0.11 S/m | 23.69 ± 0.17 mPa·s | mass density (330.15 K): 1367 ± 1 kg/m3; electrical conductivity (336.15 K): 1.26 ± 0.13 S/m; viscosity (336.15 K): 19.91 ± 0.14 mPa·s; mass density (336.15 K): 1361 ± 1 kg/m3; viscosity (341.15 K): 17.37 ± 0.12 mPa·s; mass density (341.15 K): 1357 ± 1 kg/m3; electrical conductivity (348.15 K): 1.64 ± 0.16 S/m; viscosity (348.15 K): 14.53 ± 0.1 mPa·s; mass density (348.15 K): 1351 ± 1 kg/m3; viscosity (355.15 K): 12.31 ± 0.09 mPa·s; mass density (355.15 K): 1345 ± 1 kg/m3; electrical conductivity (361.15 K): 2.11 ± 0.21 S/m; viscosity (361.15 K): 10.78 ± 0.08 mPa·s; mass density (361.15 K): 1340 ± 1 kg/m3; viscosity (373.15 K): 8.272 ± 0.06 mPa·s; mass density (373.15 K): 1330 ± 1 kg/m3
CC[P+](CC)(CC)CCOC.O=S(=O)([N-]S(=O)(=O)C(F)(F)F)C(F)(F)F | 0.384 ± 0.046 S/m | 48.14 ± 0.34 mPa·s | 1378 ± 1 kg/m3 | 0.411 ± 0.049 S/m | 44.28 ± 0.31 mPa·s | 1376 ± 1 kg/m3 | 0.498 ± 0.06 S/m | 34.95 ± 0.25 mPa·s | 1370 ± 1 kg/m3 | 0.608 ± 0.073 S/m | 28.1 ± 0.2 mPa·s | 1365 ± 1 kg/m3 | 0.719 ± 0.086 S/m | 22.97 ± 0.16 mPa·s | 1360 ± 1 kg/m3 | 0.848 ± 0.1 S/m | 19.04 ± 0.14 mPa·s | 1354 ± 1 kg/m3 | 0.987 ± 0.12 S/m | 16.01 ± 0.11 mPa·s | mass density (330.15 K): 1349 ± 1 kg/m3; electrical conductivity (336.15 K): 1.13 ± 0.14 S/m; viscosity (336.15 K): 13.62 ± 0.1 mPa·s; mass density (336.15 K): 1344 ± 1 kg/m3; viscosity (341.15 K): 11.98 ± 0.09 mPa·s; mass density (341.15 K): 1339 ± 1 kg/m3; electrical conductivity (348.15 K): 1.45 ± 0.17 S/m; viscosity (348.15 K): 10.15 ± 0.07 mPa·s; mass density (348.15 K): 1333 ± 1 kg/m3; viscosity (355.15 K): 8.692 ± 0.062 mPa·s; mass density (355.15 K): 1327 ± 1 kg/m3; electrical conductivity (361.15 K): 1.84 ± 0.22 S/m; viscosity (361.15 K): 7.672 ± 0.055 mPa·s; mass density (361.15 K): 1322 ± 1 kg/m3; viscosity (373.15 K): 5.99 ± 0.044 mPa·s; mass density (373.15 K): 1311 ± 1 kg/m3
